Source: patent publication US5281264A, “Salt-forming type dye and ink composition” (Orient Chemical Industries, Ltd., priority 1992, dated 1994)
Blank lines part the entries; values can stand above or below the compound they belong to.

Assay: Visible absorption of salt-forming type dyes (λmax)
Assay type: physicochemical
Conditions: spectra of dyes 1 and 4 in methanol solvent
Description: A structure of the dye is shown in the following formula, and hue and maximum absorption wavelength (λmax) are shown in Table. 1.
A structure of each salt-forming type dye is shown in the following formula, respectively. 1. [drawing 5]
Rhodamine 6 GCP (C.I. Basic Red) (140 parts, 0.3 mols) as a cation component was dissolved in water with stirring to prepare a 3% aqueous solution, which was then filtered. Thereafter, this solution (pH 2 to 4) was added dropwise to the dyestuff solution over 50 minutes, followed by stirring at 40° to 50° C. for 3 hours. The solution was heated to 65° C. to form a grit, followed by filtration, rinsing and further drying to obtain 200 parts of a powdered red salt-forming type dye (dye 4) having a structure of the following formula. It was confirmed that the resulting dye is a salt-forming type dye having n (2<n<3). 1. [drawing 6]
It was confirmed that the resulting dye has a structure of the following formula. 1. [drawing 7]
It was confirmed that the resulting dye has a structure of the following formula. 1. [drawing 8]

Salt-forming type dye λmax (maximum absorption wavelength) (listed as Comp. Ex. 1): 422 nm
SMILES: Cc1nn(-c2ccccc2)c(O)c1N=Nc1ccc(-c2ccc(N=Nc3c(C)nn(-c4ccccc4)c3O)cc2S(=O)(=O)O)c(S(=O)(=O)O)c1 [dye 7]

Salt-forming type dye λmax (maximum absorption wavelength) (listed as Comp. Ex. 2): 422 nm
SMILES: Cc1nn(-c2ccccc2)c(O)c1N=Nc1ccc(-c2ccc(N=Nc3c(C)nn(-c4ccccc4)c3O)cc2S(=O)(=O)O)c(S(=O)(=O)O)c1 [dye 8]

Salt-forming type dye λmax (maximum absorption wavelength) (listed as Comp. Ex. 3): 525 nm
SMILES: Cc1nn(-c2ccccc2)c(O)c1N=Nc1ccc(-c2ccc(N=Nc3c(C)nn(-c4ccccc4)c3O)cc2S(=O)(=O)O)c(S(=O)(=O)O)c1 [dye 9]

Salt-forming type dye λmax (maximum absorption wavelength) (listed as Comp. Ex. 4): 578 nm
SMILES: Cc1nn(-c2ccccc2)c(O)c1N=Nc1ccc(-c2ccc(N=Nc3c(C)nn(-c4ccccc4)c3O)cc2S(=O)(=O)O)c(S(=O)(=O)O)c1 [dye 10]
